Data set [1] is described as follows: In vivo pharmacokinetics in mice. The note with it: male C57BL/6 mice. On the procedure: To address this question, we tested the GSH reactivity of ZNL-0056 (Table S3) and its in vivo pharmacokinetic (PK) properties using three routes of administration including: 1 mg/kg IV, 3 mg/kg IP, and 10 mg/kg PO in male C57BL/6 mice (Table S4).
Table S4. Effect of ZNL-0056 in vivo- PK Parameters
Dose: 1mg/Kg IV, 3mg/Kg IP, 10mg/Kg PO. Formulation: 0.1mg/mL(IV) and 0.3mg/mL (IP)
and 1mg/mL (PO) solution in 5/25/70 EtOH/PEG300/D5W. […]

The subject of data set [2] is EGFR^L858R/C775S Ba/F3 cells. As to the kind of experiment: Antiproliferation assay (CellTiter-Glo). It is filed as cell-based. The note with it: vs EGFR^L858R Ba/F3. On the procedure: Figure S6 Dose-response curves for the indicated compounds in EGFRL858R, EGFRL858R/C797S, and EGFRL858R/C775S Ba/F3 cells following 72 h of treatment. Cell viability was assessed with CellTiter-Glo.
Data are presented as the mean ± SEM (n = 4). Representative data from three independent experiments
(1 picture or pasted object on this page, not shown here)
For infection of Ba/F3 cells, 2.5 mL of viral supernatant and 8 μg/mL polybrene was added to 2.5 million cells per well in six-well plates. The plate was centrifuged at 2500 rpm for 90 minutes at 37 °C for the spin infection. Then, virus-containing medium was removed 48 hours later and successfully infected cells were selected with the addition of 1 μg/mL puromycin to the medium.
After 3 days, cells were transferred into the fresh medium without IL-3 and puromycin. IL-3-independent transformed cells were maintained in RPMI medium 1640 supplemented with 10%
FBS. Expression of EGFR was examined by Western blot.
Immunoblotting and antibodies
Cells were lysed in RIPA buffer (150 mM NaCl, 1.0% IGEPAL® CA-630, 0.5% sodium deoxycholate, 0.1% SDS, 50 mM Tris, pH 8.0) (Sigma, Cat# R0278) with protease inhibitor and phosphatase inhibitor (Roche). The protein concentrations were measured by BCA analysis (Thermo Fisher Scientific, Cat # PI23225). […]
or IRDye 680RD goat anti-Mouse IgG (LICOR Biosciences , Cat # 926-68070) secondary antibodies at room temperature for 1 hour. The membranes were detected on Odyssey CLx system. […]
treatment. Cell viability was determined by using CellTiter-Glo (Promega #G7571) according to the manufacturer’s instructions, measuring luminescence using an Envision plate-reader (PerkinElmer Inc.). […]
After 6 hours treatment, cells were pelleted, washed with PBS once and lysed with IP lysis buffer (25mMTris-HCl pH 7.4, 150mM NaCl, 1 mM EDTA, 1% NP-40 and 5% glycerol) (Thermo Fisher Scientific, Cat#87788) containing protease/phosphatase inhibitor cocktail (Roche). The protein concentrations were measured by BCA analysis (Pierce). […]
In general terms: ATP-based viability assays read luminescence as a measure of living cells.

Another data set concerns T1, CHED.
T1 construct: purchased ActivX Biosciences (KiNativ)
The data set is described as follows: KiNativ profiling in H3255 cells. To be noted: 2.5 µM; Lys2; DIKCSNILLNNR
It is filed as cell-based, human.

Broadly, the half-life is the time in which the quantity being followed falls by half. The term bioavailability denotes the share of a dose that reaches the circulation, judged against a reference dose that is usually intravenous. Read a high bioavailability as good availability. In the case of `C=CC(=O)Nc1cc(C(=O)Nc2nc3cccc(C)c3n2[C@@H]2CCCCN(C(=O)C=C)C2)cs1` [ZNL-0056], the figures for the “area under the curve” value in data set [1] (1 mg/kg IV) and in data set [1] (10 mg/kg PO) were 21 820 min·ng/mL and 63 341 min·ng/mL, respectively. Besides, the entries for the “average maximal plasma concentration” value in data set [1] (3 mg/kg IP) and in data set [1] (10 mg/kg PO) were 1.3 µmol/L and 1.4 µmol/L, respectively. The compound also had a half-life in data set [1] (mouse, plasma, 1 mg/kg IV) of 19.8 min. Besides, the bioavailability in data set [1] (mouse, plasma, 10 mg/kg PO) turned out to be 24%. Besides, in data set [2], the “potency loss (shift) in the EGFR^L858R/C775S mutant” value amounted to 2 fold.
Broadly, the Inhibition is the percentage by which the read-out fell short of the control. Lower therefore signals little suppression. In the data set with CHED, `C=CC(=O)Nc1cc(Nc2nccc(-c3cn(C)c4ccccc34)n2)c(OC)cc1N(C)CCN(C)C` [Osimertinib, osimertinib, reference compound] came in with an Inhibition of 28.0%.

The record behind these values is article PMC11212140, “Molecular Bidents with Two Electrophilic Warheads as a New Pharmacological Modality” (ACS Central Science, 2024).
